Columns and labels:
[1] = system: HIF2α-regulated expression of the endogenous target gene hEGLN3 in 786-O cells; assay: Cellular iScript assay for HIF2α (quantitative RT-PCR of hEGLN3); type: cell-based, human; settings: Homo sapiens, 786-0, 48 hours incubation
Method in brief: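 786-O cells were exposed to eleven 2-fold compound dilutions for 48 h at 37° C. Lysates underwent one-step TaqMan qRT-PCR for hEGLN3 with beta-actin as reference; 2^(−ΔΔCt) versus DMSO, as % of control, was fit with a four-parameter model to give IC50.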

[2] = target: HIF2α PAS-B domain (236-350, biotinylated on the N-terminus) (Homo sapiens (Human), UniProt Q99814)
Chain of HIF2α PAS-B domain (236-350, biotinylated on the N-terminus) (Q99814 236-350): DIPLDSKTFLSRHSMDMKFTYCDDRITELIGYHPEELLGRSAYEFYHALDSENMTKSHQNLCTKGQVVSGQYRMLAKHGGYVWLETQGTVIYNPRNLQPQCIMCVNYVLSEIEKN
Method: The assay buffer contained 50 mM Tris-HCl pH7 (Sigma), 20 mM NaCl (Fluka), 0.02% BSA (Sigma), 0.005% Triton X-100 (Pierce) and 1 mM DTT (Fluka). After a 30 min incubation period, 5 μL Streptavidin PVT SPA Beads (Perkin Elmer) at 1.2 mg/mL, diluted in the buffer, were added.

| Structure (SMILES) | IC50 [1] [nM] | IC50 [2] [nM] |
| --- | --- | --- |
| FC(F)OC1=CC(C(F)(F)F)=CN2C[C@@]3(CCC(F)(F)c4c3ccnc4Cl)N=C12 [Example 31, (S)-1′-chloro-8-(difluoromethoxy)-8′,8′-difluoro-6-(trifluoromethyl)-7′,8′-dihydro-3H,6′H-spiro[imidazo[1,2-a]pyridine-2,5′-isoquinoline]] | 37 | 9 |
| FC(F)OC1=CC(C(F)(F)F)=CN2C[C@@]3(CCOc4cc(C(F)(F)F)ccc43)N=C12 [Example 44, (S)-8′-(difluoromethoxy)-6′,7-bis(trifluoromethyl)-3′H-spiro[chroman-4,2′-imidazo[1,2-a]pyridine]] | 65 | 13 |

— patent US12226405B2, “Compounds and compositions for inhibiting the activity of HIF2-alpha and their methods of use” (Novartis AG, priority 2020, dated 2025)
